By IC50 is commonly meant the concentration that gives 50% inhibition.

In patent publication US20120088737A2, “NOVEL ACYL GUANIDINE DERIVATIVES” (AJINOMOTO CO., INC, priority 2009, published 2012) one finds IC50 data, which are given here for 24 compounds.

SMILES strings stand for the structures.

Assay type in all cases: cell-based
Experiment [1] has as its target T1, human NHE3 (Homo sapiens, UniProt P48764).
T1 construct: expressed in transfected cells; host or cells: OK26 cells (opossum kidney OK cells); OK26 ND sublines with opNHE1 reduced by 90% for A3
T1 sequence (P48764 26-834): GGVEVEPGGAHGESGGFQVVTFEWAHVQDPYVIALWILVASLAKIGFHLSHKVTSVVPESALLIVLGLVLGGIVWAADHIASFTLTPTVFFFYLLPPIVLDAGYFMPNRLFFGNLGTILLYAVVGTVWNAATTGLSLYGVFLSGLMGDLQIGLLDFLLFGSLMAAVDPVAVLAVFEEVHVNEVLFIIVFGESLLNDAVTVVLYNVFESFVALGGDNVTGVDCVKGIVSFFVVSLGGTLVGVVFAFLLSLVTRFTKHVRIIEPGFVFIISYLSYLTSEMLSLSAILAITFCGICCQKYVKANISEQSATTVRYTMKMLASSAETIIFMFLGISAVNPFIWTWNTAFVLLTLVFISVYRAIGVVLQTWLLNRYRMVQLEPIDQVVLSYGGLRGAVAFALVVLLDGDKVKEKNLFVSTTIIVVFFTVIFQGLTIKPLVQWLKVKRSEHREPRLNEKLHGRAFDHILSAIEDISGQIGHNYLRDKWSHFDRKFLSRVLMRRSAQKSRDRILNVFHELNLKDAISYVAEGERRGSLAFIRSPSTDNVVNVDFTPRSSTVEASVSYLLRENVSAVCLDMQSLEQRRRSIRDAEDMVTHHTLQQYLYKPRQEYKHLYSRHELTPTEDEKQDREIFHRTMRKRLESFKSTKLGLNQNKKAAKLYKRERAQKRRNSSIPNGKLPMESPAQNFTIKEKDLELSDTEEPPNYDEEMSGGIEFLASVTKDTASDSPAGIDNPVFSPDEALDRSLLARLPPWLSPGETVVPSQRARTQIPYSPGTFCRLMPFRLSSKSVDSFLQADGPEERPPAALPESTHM
Put plainly: Measurements of NHE3 inhibitory activities (OK26 cells). Particulars: OK26 cells (opossum kidney cells overexpressing human NHE3), measurement time 5 minutes at 37° C.; read-out: hNHE3 IC50. How it is done: (§1) HLF cells (Human hepatoma cell line) were used as cells for the test. After 1×10^4 cells/well were seeded to a 96-well plate and cultured for 3 days, they were cultured overnight under a serum-free medium. Then, the cells were incubated in a stain solution of Tetramethylammonium (TMA) Buffer (130 mM TMA-C1, 5 mM KCl, 2 mM CaCl2, 1 mM MgSO2, 25 mM glucose, 20 mM HEPES; pH 7.4) containing 40 mM NH4Cl and 1 μg/mL pH-sensitive fluorescent indicator BCECF-AM at 37° C. for 40 minutes and then BCECF was introduced into the cells. After the cells were washed once with TMA Buffer and incubated in TMA+40 mM NH4Cl solution at 37° C. for 15 minutes, the solution was removed and 20 μL/well of TMA Buffer and 10 μL/well of each test compound solution prepared with TMA Buffer were added to each well. The measurements were carried out by adding 200 μL/well of Na Buffer (130 mM, NaCl, 5 mM KCl, 2 mM CaCl2, 1 mM MgSO2, 1 mM NaH2PO4, 25 mM glucose, 20 mM HEPES; pH 7.4) or TMA Buffer (for base measurement), immediately placing it on FlexStation (Molecular Device) and then, after 10 minutes, measuring, it the two wavelengths of 505 nm (excitation wavelength)/530 nm (emission wavelength) (measurement value) and 440 nm (excitation wavelength)/530 nm (emission wavelength) (isosbestic point value). A NHE activity was calculated by dividing a measurement value by an isosbestic point value and a NHE1 inhibitory activity was calculated by the following equation. NHE1 inhibitory activity (%)=100×(1−(Measurement value [addition of each compound]−Base [addition of TMA Buffer])/(Control [addition of Na Buffer]−Base [addition of TMA Buffer]))
Pharmacological Test Example 2: Measurements of NHE3 Inhibitory Activities.
OK26 cells (OK (opossum kidney) cells in which human NHE3 genes are overexpressed) were used as cells for the test. The measurements were carried out in the same manner as described in Pharmacological Test Example 1 except that the measurement time was 5 minutes (at 37° C.) to calculate NHE3 inhibitory activities.

Experiment [2] deals with T1, human NHE3. Put plainly: Improved version of measurements of NHE3 inhibitory activities (OK26 ND cell lines). Particulars: OK26 ND cell lines (opNHE1 expression reduced by 90%), measurement time 8 minutes at 26° C.; read-out: hNHE3 IC50. The method, then:
Pharmacological Test Example 3: Improved Version of Measurements of NHE3 Inhibitory Activities
OK26 cells express endogeneous NHE1 (opNHE1). In order to evaluate NHE3 inhibitory activities more precisely, OK26 ND cell lines in which the expression level of opNHE1 is reduced by 90% were established. Measurements of NEE inhibitory activities were carried out by using the established cell lines in the same manner as described in Pharmacological Test Example 1 except that the measurement time was 8 minutes (at 26° C.) to calculate more precise NHE3 inhibitory activities.

The target of the next experiment is T2, NHE1 (Homo sapiens, UniProt P19634).
T2 construct: HLF cells (Human hepatoma cell line) were used as cells for the test; endogenous in cells; host or cells: HLF cells (human hepatoma cell line)
T2 sequence (P19634 whole entry): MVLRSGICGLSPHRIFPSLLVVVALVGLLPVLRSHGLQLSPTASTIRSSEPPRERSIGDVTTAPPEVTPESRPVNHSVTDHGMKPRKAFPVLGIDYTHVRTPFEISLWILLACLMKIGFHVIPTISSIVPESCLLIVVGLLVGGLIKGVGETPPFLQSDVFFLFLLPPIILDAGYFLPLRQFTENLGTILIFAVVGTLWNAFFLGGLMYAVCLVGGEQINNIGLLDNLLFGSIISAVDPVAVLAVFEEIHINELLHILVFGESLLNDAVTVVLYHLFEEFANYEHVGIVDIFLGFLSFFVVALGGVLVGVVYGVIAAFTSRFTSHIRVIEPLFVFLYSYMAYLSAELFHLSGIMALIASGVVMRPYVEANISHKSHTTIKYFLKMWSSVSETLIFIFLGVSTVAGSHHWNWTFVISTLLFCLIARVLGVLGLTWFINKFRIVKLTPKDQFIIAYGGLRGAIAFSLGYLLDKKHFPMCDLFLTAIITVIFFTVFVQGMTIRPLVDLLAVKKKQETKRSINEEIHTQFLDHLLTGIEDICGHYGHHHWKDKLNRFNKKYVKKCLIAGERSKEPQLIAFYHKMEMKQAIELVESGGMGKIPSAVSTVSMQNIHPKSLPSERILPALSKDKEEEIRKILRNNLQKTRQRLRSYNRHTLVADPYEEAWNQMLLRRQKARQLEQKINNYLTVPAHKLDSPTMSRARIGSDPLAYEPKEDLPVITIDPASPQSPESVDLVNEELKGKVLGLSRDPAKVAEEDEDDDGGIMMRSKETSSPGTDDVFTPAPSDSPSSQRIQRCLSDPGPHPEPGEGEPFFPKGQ
The experiment in a line: Measurements of NHE1 inhibitory activities (HLF cells, BCECF pH recovery). Particulars: HLF cells (human hepatoma cell line), measured after 10 minutes; read-out: hNHE1 IC50. The method, then:
Pharmacological Test Example 1: Measurements of NHE1 Inhibitory Activities
as §1

In the case of `C/C(=C\c1ccccc1-c1ccc(O)cc1)C(=O)NC(=N)N` [Example 2, N-[(E)-3-(4′-hydroxy-biphenyl-2-yl)-2-methyl-acryloyl]-guanidine], the 50% inhibitory concentration (IC50) at human NHE3 [1] is 0.11 µM; at human NHE3 [2], 0.083 µM. Consider `C/C(=C\c1ccccc1-c1ccc(B(O)O)cc1)C(=O)NC(=N)N` [Example 11, N-[(E)-3-(4′-boronic acid-biphenyl-2-yl)-2-methyl-acryloyl]guanidine], for which the half-maximal inhibitory concentration (IC50) was 1.2 µM on NHE1, 0.23 µM on human NHE3 [1] and 0.1 µM on human NHE3 [2]. In the case of `C/C(=C\c1cc(O)c(O)cc1-c1cccc(O)c1)C(=O)NC(=N)N` [Example 36, N-[(E)-2-methyl-3-(4,5,3′-trihydroxy-biphenyl-2-yl)-acryloyl]-guanidine], the 50% inhibitory concentration (IC50) at human NHE3 [1] came out at 0.32 µM; on human NHE3 [2], 0.23 µM. Turning to `C/C(=C\c1ccccc1-c1ccc(C(=O)O)cc1)C(=O)NC(=N)N` [Example 10, (E)-2′-(3-guanidino-2-methyl-3-oxo-propenyl)-biphenyl-4-carboxylic acid], the IC50 on human NHE3 [1] was determined as 1.6 µM. Still for that read-out and setting: under `C/C(=C\c1ccc(-c2ccc(O)cc2C)cc1)C(=O)NC(=N)N` [Example 86, N-[(E)-3-(4′-hydroxy-2′-methyl-biphenyl-4-yl)-2-methyl-acryloyl]-guanidine] stands 0.23 µM; under `C/C(=C\c1ccc(-c2cccc(O)c2)cc1)C(=O)NC(=N)N` [Example 87, N-[(E)-3-(3′-hydroxy-biphenyl-4-yl)-2-methyl-acryloyl]-guanidine], 0.27 µM. With `C/C(=C\c1ccc(-c2ccc(F)c(O)c2)cc1)C(=O)NC(=N)N` [Example 89, N-[(E)-3-(4′-fluoro-3′-hydroxy-biphenyl-4-yl)-2-methyl-acryloyl]-guanidine], the IC50 on human NHE3 [1] was 0.86 µM. As to `C/C(=C\c1ccccc1-c1ccc(C(=N)N)c(F)c1)C(=O)NC(=N)N` [Example 58, (E)-3-fluoro-2′-(3-guanidino-2-methyl-3-oxo-propenyl)-biphenyl-4-carboxamidine], the IC50 is 0.2 µM at NHE1 and 0.009 µM at human NHE3 [2]. `C/C(=C\c1c(F)cccc1-c1ccc(O)cc1)C(=O)NC(=N)N` [Example 82, N-[(E)-3-(3-fluoro-4′-hydroxy-biphenyl-2-yl)-2-methyl-acryloyl]-guanidine]: the results for the IC50 on NHE1 and at human NHE3 [2] were 6.6 µM and 0.35 µM, respectively. The matching figures for `C/C(=C\c1ccc(-c2ccc(O)cc2)cc1-c1ccc(O)cc1)C(=O)NC(=N)N` [Example 72, N-[(E)-3-(2,4-di(4-hydroxyphenyl)-phenyl)-2-methyl-acryloyl]-guanidine]: 1.1 µM and 0.087 µM. Turning to `C/C(=C\c1ccc(-c2ccccc2O)cc1)C(=O)NC(=N)N` [Example 88, N-[3-(2′-hydroxy-biphenyl-4-yl)-2-methyl-acryloyl]-guanidine], on human NHE3 [1], the half-maximal inhibitory concentration (IC50) turned out to be 0.48 µM.

Regarding `C/C(=C\c1ccc(-c2ccc(F)c(O)c2)cc1-c1ccc(F)c(O)c1)C(=O)NC(=N)N` [Example 76, N-[(E)-3-(2,4-di(3-hydroxy-4-fluorophenyl)-phenyl)-2-methyl-acryloyl]-guanidine], the concentration for half-maximal inhibition (IC50) was found to be 1.1 µM on NHE1 and 0.4 µM at human NHE3 [2]. Turning to `C/C(=C\c1ccccc1-c1cccc(C(=O)NO)c1)C(=O)NC(=N)N` [Example 55, (E)-2′-(3-guanidino-2-methyl-3-oxo-propenyl)-biphenyl-3-carboxylic acid hydroxyamide], the figures for the IC50 on NHE1 and on human NHE3 [2] were 2.9 µM and 0.44 µM, respectively. `C/C(=C\c1ccccc1-c1ccc(C(=N)N)cc1C)C(=O)NC(=N)N` [Example 57, (E)-2′-(3-guanidino-2-methyl-3-oxo-propenyl)-2-methyl-biphenyl-4-carboxamidine]: the IC50 is 1.1 µM on NHE1 and 0.1 µM on human NHE3 [2].

On to `C/C(=C\c1ccc(C)cc1-c1ccc(O)c(O)c1)C(=O)NC(=N)N` [Example 69, N-[(E)-3-(3′,4′-dihydroxy-5-methyl-biphenyl-2-yl)-2-methyl-acryloyl]-guanidine], for which the IC50 was 0.58 µM at NHE1 and 0.1 µM on human NHE3 [2]. On to `C/C(=C\c1ccccc1-c1cccc(O)c1)C(=O)NC(=N)N` [Example 13, N-[(E)-3-(3′-hydroxy-biphenyl-2-yl)-2-methyl-acryloyl]guanidine], for which the figures for the IC50 at human NHE3 [1] and on human NHE3 [2] were 0.21 µM and 0.11 µM, respectively. In the case of `C/C(=C\c1ccc(C)cc1-c1ccc(O)c(F)c1)C(=O)NC(=N)N` [Example 62, N-[(E)-3-(3′-fluoro-4′-hydroxy-5-methylbiphenyl-2-yl)-2-methyl-acryloyl]-guanidine], the figures for the 50% inhibitory concentration (IC50) on NHE1 and at human NHE3 [2] were 1.3 µM and 0.092 µM, respectively.

`C/C(=C\c1ccc(C)cc1-c1ccc(C(=N)N)c(F)c1)C(=O)NC(=N)N` [Example 79, (E)-3-fluoro-2′-(3-guanidino-2-methyl-3-oxo-propenyl)-5′-methyl-biphenyl-4-carboxamidine]: the IC50 came to 5.2 µM at NHE1 and 0.7 µM at human NHE3 [2]. Consider `C/C(=C\c1ccccc1-c1ccc(O)cc1F)C(=O)NC(=N)N` [Example 59, N-[(E)-3-(2′-fluoro-4′-hydroxy-biphenyl-2-yl)-2-methyl-acryloyl]-guanidine], for which the IC50 amounted to 3.2 µM at NHE1 and 0.28 µM at human NHE3 [2]. Consider `C/C(=C\c1c(-c2ccc(O)cc2)cccc1-c1ccc(O)cc1)C(=O)NC(=N)N` [Example 80, N-[(E)-3-(4,4″-dihydroxy-[1,1′;3′,1″]terphenyl-2′-yl)-2-methyl-acryloyl]-guanidine], for which the IC50 at NHE1 was 7.7 µM; on human NHE3 [2], 0.2 µM. The matching figures for `C/C(=C\c1ccc(C(F)(F)F)cc1-c1ccc(O)cc1)C(=O)NC(=N)N` [Example 81, N-[(E)-3-(4′-hydroxy-5-trifluoromethyl-biphenyl-2-yl)-2-methyl-acryloyl]-guanidine]: 5.2 µM and 0.63 µM. The matching figures for `C/C(=C\c1ccccc1-c1ccc(O)cc1Cl)C(=O)NC(=N)N` [Example 60, N-[(E)-3-(2′-chloro-4′-hydroxy-biphenyl-2-yl)-2-methyl-acryloyl]-guanidine]: 0.91 µM and 0.31 µM. Regarding `C/C(=C\c1ccc(-c2cccc(O)c2)cc1-c1cccc(O)c1)C(=O)NC(=N)N` [Example 77, N-[(E)-3-(2,4-di(3-hydroxyphenyl)-phenyl)-2-methyl-acryloyl]-guanidine], the IC50 on NHE1 turned out to be 0.94 µM; on human NHE3 [2], 0.061 µM. The matching figures for `C/C(=C\c1ccccc1-c1ccc(O)cc1O)C(=O)NC(=N)N` [Example 53, N-[(E)-3-(2′,4′-hydroxy-2-yl)-2-methyl-acryloyl]-guanidine]: 2.9 µM and 0.74 µM.
